One assay deals with MAPK8 (human) (UniProt P45983). Description: radiometric filter-binding kinase assay, Kinase HotSpot. The following applies: compound 0.5 µM; ATP 10 µM.
Turning to `Cc1nc2cc3nc(-c4cccs4)cnc3cc2n1C`, the residual activity came out at 93.7%.
On to `O=C1NC(=O)C(c2cn(CCCO)c3ncccc23)=C1c1cnccn1`, for which the residual activity is 99.6%.
With `COc1cc2ncnc(N3CCN(C(=O)Nc4ccc(Oc5ccccc5)cc4)CC3)c2cc1OC`, the residual activity was 90.5%.

Another assay deals with MAPK3 (human) (UniProt P27361). Described as above. As to conditions: compound 0.5 µM; ATP 10 µM.
With `Cc1nc2cc3nc(-c4cccs4)cnc3cc2n1C`, the residual activity was 117%.
For `O=C1NC(=O)C(c2cn(CCCO)c3ncccc23)=C1c1cnccn1`, the residual activity turned out to be 94.5%.
The same measure, in the same setting: the result for `COc1cc2ncnc(N3CCN(C(=O)Nc4ccc(Oc5ccccc5)cc4)CC3)c2cc1OC` reads 102%.

The next assay deals with LIMK1 (human) (UniProt P53667). The description is as above. The following applies: compound 0.5 µM; ATP 10 µM.
Sequence of LIMK1 (human) (P53667 whole entry, looked up): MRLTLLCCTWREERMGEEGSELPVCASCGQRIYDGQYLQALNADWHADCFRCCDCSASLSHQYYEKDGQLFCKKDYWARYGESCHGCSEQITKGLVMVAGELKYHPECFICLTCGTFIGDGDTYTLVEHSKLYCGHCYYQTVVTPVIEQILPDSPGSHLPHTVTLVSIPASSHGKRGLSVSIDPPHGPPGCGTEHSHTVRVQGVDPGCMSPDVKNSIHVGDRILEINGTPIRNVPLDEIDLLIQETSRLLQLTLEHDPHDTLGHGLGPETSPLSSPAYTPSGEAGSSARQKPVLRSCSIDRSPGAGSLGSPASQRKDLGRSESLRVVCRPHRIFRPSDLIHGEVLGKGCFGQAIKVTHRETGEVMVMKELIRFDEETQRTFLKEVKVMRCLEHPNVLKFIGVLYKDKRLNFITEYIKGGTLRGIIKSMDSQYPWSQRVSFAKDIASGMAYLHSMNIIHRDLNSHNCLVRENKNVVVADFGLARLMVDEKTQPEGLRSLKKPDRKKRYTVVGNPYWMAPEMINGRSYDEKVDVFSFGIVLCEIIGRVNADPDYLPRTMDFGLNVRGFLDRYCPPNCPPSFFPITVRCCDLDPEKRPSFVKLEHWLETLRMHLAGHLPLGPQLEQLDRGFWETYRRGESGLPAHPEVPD
For `Cc1nc2cc3nc(-c4cccs4)cnc3cc2n1C`, the residual activity was determined as 112%.
Still for that read-out and setting: the result for `O=C1NC(=O)C(c2cn(CCCO)c3ncccc23)=C1c1cnccn1` reads 96.4%.
Still for that read-out and setting: the result for `COc1cc2ncnc(N3CCN(C(=O)Nc4ccc(Oc5ccccc5)cc4)CC3)c2cc1OC` reads 69.8%.

The target of another assay is ULK2 (human) (UniProt Q8IYT8). The assay is described as above. The following applies: compound 0.5 µM; ATP 10 µM.
Take `Cc1nc2cc3nc(-c4cccs4)cnc3cc2n1C`: the residual activity is 105%.
Same read-out and setting: the result for `O=C1NC(=O)C(c2cn(CCCO)c3ncccc23)=C1c1cnccn1` reads 96.7%; that for `COc1cc2ncnc(N3CCN(C(=O)Nc4ccc(Oc5ccccc5)cc4)CC3)c2cc1OC`, 102%.

Another assay has as its target SGK3 (human) (UniProt Q96BR1). The assay is described as above. The following applies: compound 0.5 µM; ATP 10 µM.
Consider `Cc1nc2cc3nc(-c4cccs4)cnc3cc2n1C`, for which the residual activity came out at 105%.
On the same count and under the same terms, the result for `O=C1NC(=O)C(c2cn(CCCO)c3ncccc23)=C1c1cnccn1` reads 124%; that for `COc1cc2ncnc(N3CCN(C(=O)Nc4ccc(Oc5ccccc5)cc4)CC3)c2cc1OC`, 97.6%.

The target in the next assay is STK3 (human) (UniProt Q13188). The assay is described as above. As to conditions: compound 0.5 µM; ATP 10 µM.
Consider `Cc1nc2cc3nc(-c4cccs4)cnc3cc2n1C`, for which the residual activity was 97.1%.
On the same count and under the same terms, then `O=C1NC(=O)C(c2cn(CCCO)c3ncccc23)=C1c1cnccn1`, with 74.4%.
Same read-out and setting: the result for `COc1cc2ncnc(N3CCN(C(=O)Nc4ccc(Oc5ccccc5)cc4)CC3)c2cc1OC` reads 93.3%.

In the next assay the target is TXK (human) (UniProt P42681). The assay is described as above. The following applies: compound 0.5 µM; ATP 10 µM.
Sequence of TXK (human) (P42681 whole entry, looked up): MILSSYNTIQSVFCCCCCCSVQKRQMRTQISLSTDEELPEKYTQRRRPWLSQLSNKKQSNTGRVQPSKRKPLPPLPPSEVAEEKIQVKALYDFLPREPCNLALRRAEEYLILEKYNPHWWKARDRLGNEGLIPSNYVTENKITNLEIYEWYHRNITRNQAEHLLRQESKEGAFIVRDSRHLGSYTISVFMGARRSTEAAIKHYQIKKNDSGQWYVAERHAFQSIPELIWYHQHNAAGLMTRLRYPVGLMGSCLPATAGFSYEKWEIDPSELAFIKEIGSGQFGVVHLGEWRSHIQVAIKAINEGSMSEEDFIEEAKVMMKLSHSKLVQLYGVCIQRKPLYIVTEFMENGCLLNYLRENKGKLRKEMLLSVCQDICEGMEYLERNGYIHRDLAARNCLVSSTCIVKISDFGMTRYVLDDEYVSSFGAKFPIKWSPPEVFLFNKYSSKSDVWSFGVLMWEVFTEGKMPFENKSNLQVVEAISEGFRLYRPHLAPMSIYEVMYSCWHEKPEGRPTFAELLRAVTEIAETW
Consider `Cc1nc2cc3nc(-c4cccs4)cnc3cc2n1C`, for which the residual activity was 102%.
Still for that read-out and setting: the result for `O=C1NC(=O)C(c2cn(CCCO)c3ncccc23)=C1c1cnccn1` reads 75.3%; that for `COc1cc2ncnc(N3CCN(C(=O)Nc4ccc(Oc5ccccc5)cc4)CC3)c2cc1OC`, 99.3%.

The next assay concerns the target MAPKAPK2 (human) (UniProt P49137). Described as above. As to conditions: compound 0.5 µM; ATP 10 µM.
Consider `Cc1nc2cc3nc(-c4cccs4)cnc3cc2n1C`, for which the residual activity was 95.4%.
Still for that read-out and setting: the result for `O=C1NC(=O)C(c2cn(CCCO)c3ncccc23)=C1c1cnccn1` reads 91%; that for `COc1cc2ncnc(N3CCN(C(=O)Nc4ccc(Oc5ccccc5)cc4)CC3)c2cc1OC`, 102%.

The target in a further assay is MAP2K2 (human) (UniProt P36507). The description is as above. As to conditions: compound 0.5 µM; ATP 10 µM.
Consider `Cc1nc2cc3nc(-c4cccs4)cnc3cc2n1C`, for which the residual activity was found to be 77.5%.
Same read-out and setting: then `O=C1NC(=O)C(c2cn(CCCO)c3ncccc23)=C1c1cnccn1`, with 90.3%.
The same measure, in the same setting: the result for `COc1cc2ncnc(N3CCN(C(=O)Nc4ccc(Oc5ccccc5)cc4)CC3)c2cc1OC` reads 99.3%.

The target of the next assay is NUAK2 (human) (UniProt Q9H093). Described as above. As to conditions: compound 0.5 µM; ATP 10 µM.
Sequence of NUAK2 (human) (Q9H093 whole entry, looked up): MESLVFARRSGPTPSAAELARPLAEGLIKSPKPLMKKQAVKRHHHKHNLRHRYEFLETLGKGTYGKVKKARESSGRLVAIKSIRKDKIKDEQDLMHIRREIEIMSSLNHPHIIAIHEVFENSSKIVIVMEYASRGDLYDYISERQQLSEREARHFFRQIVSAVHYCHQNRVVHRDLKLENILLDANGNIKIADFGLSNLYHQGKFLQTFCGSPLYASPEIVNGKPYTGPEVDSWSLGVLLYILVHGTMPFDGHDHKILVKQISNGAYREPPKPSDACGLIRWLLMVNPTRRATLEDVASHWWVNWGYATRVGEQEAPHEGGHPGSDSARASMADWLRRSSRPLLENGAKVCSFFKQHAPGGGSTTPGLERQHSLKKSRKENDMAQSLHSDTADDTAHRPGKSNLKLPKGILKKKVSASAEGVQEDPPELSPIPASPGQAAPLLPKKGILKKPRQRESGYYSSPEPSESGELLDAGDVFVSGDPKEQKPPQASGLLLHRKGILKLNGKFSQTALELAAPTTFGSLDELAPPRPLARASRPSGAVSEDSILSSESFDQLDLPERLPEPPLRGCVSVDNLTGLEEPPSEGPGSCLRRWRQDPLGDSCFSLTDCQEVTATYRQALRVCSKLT
For `Cc1nc2cc3nc(-c4cccs4)cnc3cc2n1C`, the residual activity is 96.7%.
Turning to `O=C1NC(=O)C(c2cn(CCCO)c3ncccc23)=C1c1cnccn1`, the residual activity was 92.3%.
On to `COc1cc2ncnc(N3CCN(C(=O)Nc4ccc(Oc5ccccc5)cc4)CC3)c2cc1OC`, for which the residual activity was determined as 77.4%.

The target of the next assay is CDK7 CCNH MNAT1 (human) (UniProt P50613+P51948+P51946). The assay is described as above. As to conditions: compound 0.5 µM; ATP 10 µM.
For `Cc1nc2cc3nc(-c4cccs4)cnc3cc2n1C`, the residual activity amounted to 102%.
Still for that read-out and setting: then `O=C1NC(=O)C(c2cn(CCCO)c3ncccc23)=C1c1cnccn1`, with 96.9%; and `COc1cc2ncnc(N3CCN(C(=O)Nc4ccc(Oc5ccccc5)cc4)CC3)c2cc1OC`, with 103%.

Another assay addresses CSK (human) (UniProt P41240). Described as above. The following applies: compound 0.5 µM; ATP 10 µM.
With `Cc1nc2cc3nc(-c4cccs4)cnc3cc2n1C`, the residual activity was determined as 101%.
The same measure, in the same setting: then `O=C1NC(=O)C(c2cn(CCCO)c3ncccc23)=C1c1cnccn1`, with 86.9%; and `COc1cc2ncnc(N3CCN(C(=O)Nc4ccc(Oc5ccccc5)cc4)CC3)c2cc1OC`, with 81.3%.

Another assay has as its target PRKCZ (human) (UniProt Q05513). The description is as above. As to conditions: compound 0.5 µM; ATP 10 µM.
For `Cc1nc2cc3nc(-c4cccs4)cnc3cc2n1C`, the residual activity came to 95.6%.
On the same count and under the same terms, the result for `O=C1NC(=O)C(c2cn(CCCO)c3ncccc23)=C1c1cnccn1` reads 88.5%; that for `COc1cc2ncnc(N3CCN(C(=O)Nc4ccc(Oc5ccccc5)cc4)CC3)c2cc1OC`, 96%.

The target in a further assay is NUAK1 (human) (UniProt O60285). The description is as above. The following applies: compound 0.5 µM; ATP 10 µM.
Regarding `Cc1nc2cc3nc(-c4cccs4)cnc3cc2n1C`, the residual activity came to 95.3%.
With `O=C1NC(=O)C(c2cn(CCCO)c3ncccc23)=C1c1cnccn1`, the residual activity turned out to be 59.4%.
Same read-out and setting: the result for `COc1cc2ncnc(N3CCN(C(=O)Nc4ccc(Oc5ccccc5)cc4)CC3)c2cc1OC` reads 88.8%.

In a further assay the target is LCK (human) (UniProt P06239). The description is as above. The following applies: compound 0.5 µM; ATP 10 µM.
Sequence of LCK (human) (P06239 whole entry, looked up): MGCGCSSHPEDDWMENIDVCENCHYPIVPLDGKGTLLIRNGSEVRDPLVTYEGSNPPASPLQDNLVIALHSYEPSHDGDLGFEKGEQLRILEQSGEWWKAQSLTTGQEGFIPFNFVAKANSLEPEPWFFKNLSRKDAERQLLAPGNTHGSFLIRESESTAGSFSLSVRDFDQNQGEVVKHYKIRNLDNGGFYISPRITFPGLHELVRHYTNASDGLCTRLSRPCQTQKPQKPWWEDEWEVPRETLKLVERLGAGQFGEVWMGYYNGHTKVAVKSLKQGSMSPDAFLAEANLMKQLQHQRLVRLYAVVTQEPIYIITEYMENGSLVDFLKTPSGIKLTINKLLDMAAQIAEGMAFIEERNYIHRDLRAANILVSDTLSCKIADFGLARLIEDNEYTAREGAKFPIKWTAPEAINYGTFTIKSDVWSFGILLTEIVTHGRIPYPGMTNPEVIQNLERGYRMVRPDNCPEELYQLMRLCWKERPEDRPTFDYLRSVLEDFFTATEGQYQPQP
For `Cc1nc2cc3nc(-c4cccs4)cnc3cc2n1C`, the residual activity amounted to 86.3%.
Same read-out and setting: the result for `O=C1NC(=O)C(c2cn(CCCO)c3ncccc23)=C1c1cnccn1` reads 95.8%; that for `COc1cc2ncnc(N3CCN(C(=O)Nc4ccc(Oc5ccccc5)cc4)CC3)c2cc1OC`, 92.3%.

In the next assay the target is EPHB2 (human) (UniProt P29323). The assay is described as above. As to conditions: compound 0.5 µM; ATP 10 µM.
Sequence of EPHB2 (human) (P29323 whole entry, looked up): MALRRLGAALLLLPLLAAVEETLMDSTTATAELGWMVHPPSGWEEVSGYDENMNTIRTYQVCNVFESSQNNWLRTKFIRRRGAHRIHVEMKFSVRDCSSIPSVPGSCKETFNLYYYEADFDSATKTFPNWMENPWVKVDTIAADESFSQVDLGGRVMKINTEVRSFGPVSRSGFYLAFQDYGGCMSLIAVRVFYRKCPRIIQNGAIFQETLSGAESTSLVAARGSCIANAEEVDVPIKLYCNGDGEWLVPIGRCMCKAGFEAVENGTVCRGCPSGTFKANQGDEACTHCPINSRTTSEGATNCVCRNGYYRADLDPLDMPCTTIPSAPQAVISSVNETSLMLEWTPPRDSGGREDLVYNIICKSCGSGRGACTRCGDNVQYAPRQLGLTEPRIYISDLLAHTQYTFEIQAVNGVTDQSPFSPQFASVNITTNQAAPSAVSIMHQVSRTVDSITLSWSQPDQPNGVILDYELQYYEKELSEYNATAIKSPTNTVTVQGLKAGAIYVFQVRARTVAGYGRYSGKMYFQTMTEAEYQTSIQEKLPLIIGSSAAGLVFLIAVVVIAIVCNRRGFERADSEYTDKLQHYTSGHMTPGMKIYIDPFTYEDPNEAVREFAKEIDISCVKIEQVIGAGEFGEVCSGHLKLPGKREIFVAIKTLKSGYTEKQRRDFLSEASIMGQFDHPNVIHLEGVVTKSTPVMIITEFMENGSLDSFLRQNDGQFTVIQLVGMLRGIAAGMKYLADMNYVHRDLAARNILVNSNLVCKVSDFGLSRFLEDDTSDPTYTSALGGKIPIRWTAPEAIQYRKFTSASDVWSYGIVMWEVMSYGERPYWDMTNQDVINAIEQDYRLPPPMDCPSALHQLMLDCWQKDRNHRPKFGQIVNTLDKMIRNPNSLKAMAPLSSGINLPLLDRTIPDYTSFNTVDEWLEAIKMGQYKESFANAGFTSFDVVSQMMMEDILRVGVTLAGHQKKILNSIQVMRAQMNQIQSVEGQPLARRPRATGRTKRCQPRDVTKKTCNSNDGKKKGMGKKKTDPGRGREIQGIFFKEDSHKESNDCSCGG
With `Cc1nc2cc3nc(-c4cccs4)cnc3cc2n1C`, the residual activity amounted to 101%.
`O=C1NC(=O)C(c2cn(CCCO)c3ncccc23)=C1c1cnccn1`: the residual activity was determined as 78.3%.
Same read-out and setting: then `COc1cc2ncnc(N3CCN(C(=O)Nc4ccc(Oc5ccccc5)cc4)CC3)c2cc1OC`, with 98.2%.

The target in the next assay is NEK4 (human) (UniProt P51957). The assay is described as above. As to conditions: compound 0.5 µM; ATP 10 µM.
Sequence of NEK4 (human) (P51957 whole entry, looked up): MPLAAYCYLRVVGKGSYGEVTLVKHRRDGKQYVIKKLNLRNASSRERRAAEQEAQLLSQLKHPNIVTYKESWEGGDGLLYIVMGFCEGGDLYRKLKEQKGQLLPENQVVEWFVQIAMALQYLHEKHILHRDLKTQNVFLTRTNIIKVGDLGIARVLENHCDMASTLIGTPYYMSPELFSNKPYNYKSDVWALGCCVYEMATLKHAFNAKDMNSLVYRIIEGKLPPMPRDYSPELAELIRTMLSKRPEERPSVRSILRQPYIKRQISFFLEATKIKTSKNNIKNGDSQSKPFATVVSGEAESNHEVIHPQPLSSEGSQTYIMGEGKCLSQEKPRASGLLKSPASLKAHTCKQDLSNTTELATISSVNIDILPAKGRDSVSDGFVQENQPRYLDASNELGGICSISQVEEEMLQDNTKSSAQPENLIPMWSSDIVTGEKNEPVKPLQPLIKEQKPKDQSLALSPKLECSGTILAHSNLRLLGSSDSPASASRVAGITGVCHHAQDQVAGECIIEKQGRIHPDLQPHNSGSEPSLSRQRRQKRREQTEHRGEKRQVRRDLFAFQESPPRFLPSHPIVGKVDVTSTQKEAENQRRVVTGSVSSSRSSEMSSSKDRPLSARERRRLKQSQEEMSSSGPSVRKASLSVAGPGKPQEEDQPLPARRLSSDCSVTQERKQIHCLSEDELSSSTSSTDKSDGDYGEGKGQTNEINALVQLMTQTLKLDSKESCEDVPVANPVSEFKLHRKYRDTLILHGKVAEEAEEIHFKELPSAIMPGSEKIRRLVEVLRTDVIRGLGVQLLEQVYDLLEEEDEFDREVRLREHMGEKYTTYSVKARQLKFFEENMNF
For the molecule `Cc1nc2cc3nc(-c4cccs4)cnc3cc2n1C`, the residual activity came to 95.2%.
With `O=C1NC(=O)C(c2cn(CCCO)c3ncccc23)=C1c1cnccn1`, the residual activity came out at 85.1%.
As for `COc1cc2ncnc(N3CCN(C(=O)Nc4ccc(Oc5ccccc5)cc4)CC3)c2cc1OC`, the residual activity worked out at 94.4%.

The target of a further assay is CHEK2 (human) (UniProt O96017). Described as above. As to conditions: compound 0.5 µM; ATP 10 µM.
Turning to `Cc1nc2cc3nc(-c4cccs4)cnc3cc2n1C`, the residual activity was found to be 94.6%.
Same read-out and setting: then `O=C1NC(=O)C(c2cn(CCCO)c3ncccc23)=C1c1cnccn1`, with 97.7%.
Same read-out and setting: the result for `COc1cc2ncnc(N3CCN(C(=O)Nc4ccc(Oc5ccccc5)cc4)CC3)c2cc1OC` reads 102%.

The target of another assay is NEK11 (human) (UniProt Q8NG66). The description is as above. As to conditions: compound 0.5 µM; ATP 10 µM.
Sequence of NEK11 (human) (Q8NG66 whole entry, looked up): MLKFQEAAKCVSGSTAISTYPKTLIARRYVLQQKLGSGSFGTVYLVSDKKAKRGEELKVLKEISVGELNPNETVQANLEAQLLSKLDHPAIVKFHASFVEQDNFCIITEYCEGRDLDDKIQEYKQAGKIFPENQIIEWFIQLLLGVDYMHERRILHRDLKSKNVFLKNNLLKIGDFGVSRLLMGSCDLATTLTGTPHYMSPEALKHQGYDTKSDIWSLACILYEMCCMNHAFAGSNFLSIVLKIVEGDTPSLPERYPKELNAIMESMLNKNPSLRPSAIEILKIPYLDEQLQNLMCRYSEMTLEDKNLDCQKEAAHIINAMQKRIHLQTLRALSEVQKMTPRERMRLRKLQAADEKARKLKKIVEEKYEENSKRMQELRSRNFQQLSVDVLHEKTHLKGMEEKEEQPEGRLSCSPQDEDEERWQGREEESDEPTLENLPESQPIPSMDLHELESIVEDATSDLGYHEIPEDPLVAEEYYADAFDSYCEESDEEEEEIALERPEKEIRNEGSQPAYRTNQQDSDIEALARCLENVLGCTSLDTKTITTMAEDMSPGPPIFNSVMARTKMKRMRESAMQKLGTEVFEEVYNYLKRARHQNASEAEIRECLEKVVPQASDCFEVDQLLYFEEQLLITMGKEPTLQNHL
Regarding `Cc1nc2cc3nc(-c4cccs4)cnc3cc2n1C`, the residual activity is 93.1%.
The same measure, in the same setting: then `O=C1NC(=O)C(c2cn(CCCO)c3ncccc23)=C1c1cnccn1`, with 108%; and `COc1cc2ncnc(N3CCN(C(=O)Nc4ccc(Oc5ccccc5)cc4)CC3)c2cc1OC`, with 107%.

The target in a further assay is AXL (human) (UniProt P30530). The assay is described as above. As to conditions: compound 0.5 µM; ATP 10 µM.
As for `Cc1nc2cc3nc(-c4cccs4)cnc3cc2n1C`, the residual activity is 109%.
The same measure, in the same setting: the result for `O=C1NC(=O)C(c2cn(CCCO)c3ncccc23)=C1c1cnccn1` reads 104%; that for `COc1cc2ncnc(N3CCN(C(=O)Nc4ccc(Oc5ccccc5)cc4)CC3)c2cc1OC`, 91.7%.

Another assay deals with BRSK1 (human) (UniProt Q8TDC3). Described as above. As to conditions: compound 0.5 µM; ATP 10 µM.
`Cc1nc2cc3nc(-c4cccs4)cnc3cc2n1C`: the residual activity worked out at 98.7%.
The same measure, in the same setting: the result for `O=C1NC(=O)C(c2cn(CCCO)c3ncccc23)=C1c1cnccn1` reads 89.2%; that for `COc1cc2ncnc(N3CCN(C(=O)Nc4ccc(Oc5ccccc5)cc4)CC3)c2cc1OC`, 86.4%.

Usually residual activity stands for the signal under treatment as a percentage of the control signal.

The values above are taken from the kinase profiling compilation of Christmann-Franck et al. (2016).
